From patent publication US9930893B2, “Inhibitors of DXP synthase and methods of use thereof” (The Johns Hopkins University, priority 2014, dated 2018)
Converted amounts (≈) assume the structure as drawn. “And” between values parts separate entries of the source, which are not always exact repeats. Equal values may be shown once. Read-outs that look alike come from different tables or passages of the source.

What was measured:
[1] = target: T1, E. coli DXP synthase (DXPS) (Escherichia coli, UniProt P77488); type: biochemical; settings: for kcat: acceptor substrate turnover
T1 construct: made in house
T1 sequence (P77488 1-620): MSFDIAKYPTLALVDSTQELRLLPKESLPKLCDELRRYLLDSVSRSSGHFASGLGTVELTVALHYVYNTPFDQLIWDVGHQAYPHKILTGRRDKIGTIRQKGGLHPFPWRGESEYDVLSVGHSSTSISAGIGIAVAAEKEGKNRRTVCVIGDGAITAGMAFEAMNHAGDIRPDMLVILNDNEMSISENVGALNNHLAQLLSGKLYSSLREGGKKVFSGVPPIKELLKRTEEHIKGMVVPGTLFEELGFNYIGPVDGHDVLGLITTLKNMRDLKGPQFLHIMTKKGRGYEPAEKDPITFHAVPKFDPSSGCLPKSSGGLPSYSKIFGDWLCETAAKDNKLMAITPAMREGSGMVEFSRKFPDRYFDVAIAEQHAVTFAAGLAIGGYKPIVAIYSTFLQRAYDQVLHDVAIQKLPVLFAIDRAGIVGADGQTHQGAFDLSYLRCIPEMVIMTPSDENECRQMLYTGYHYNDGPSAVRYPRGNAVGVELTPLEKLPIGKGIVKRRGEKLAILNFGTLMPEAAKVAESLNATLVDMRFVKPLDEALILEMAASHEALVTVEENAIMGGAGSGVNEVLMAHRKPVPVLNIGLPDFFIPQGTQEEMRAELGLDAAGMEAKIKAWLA
Method: Reaction mixtures containing 100 mM HEPES, pH 8.0, 2 mM MgCl2, 5 mM NaCl, 1 mM ThDP, 1 mg/mL BSA, 10-20 mM pyruvate, 10% DMSO, 0.5 mM 5 mM nitroso substrate were pre-incubated at 37° C. for 5 min. […] Aliquots of enzymatic mixture were removed at various time intervals and quenched into an equal volume of cold methanol. Quenched mixtures were incubated on ice for 20 minutes. Precipitated proteins were removed by centrifugation, and the supernatant was analyzed by HPLC with UV detection using the following conditions: Flow rate=3 mL/min; Solvent A: 100 mM NH4OAc, pH 4.6; Solvent B: acetonitrile; Method: 0-100% B over 10 min. New products formed were extracted from the supernatant using ethyl acetate (3×). […] Products were subsequently characterized by mass spectrometry.
Reaction mixtures containing 100 mM HEPES, pH 8.0, 2 mM MgCl2, 5 mM NaCl, 1 mM ThDP, 1 mg/mL BSA, 10-20 mM pyruvate, 10% DMSO v/v, and 10-300 μM nitroso substrate were pre-incubated at 37° C. for 5 min. […] Substrate concentration as a function of time was determined from absorbance values using Beer's Law. Initial reaction rates were determined from the linear range of the reaction progress curve, usually within 1-3 min. Data analysis to determine kcat and Km for each alternative substrate was carried out using GraFit version 7 from Erithacus Software.

DXP synthase = target: T2, DXP synthase (Escherichia coli, UniProt P77488); assay: Inhibition of DXP formation by nitroso substrates (HPLC-based assay); type: biochemical, E. coli; settings: 30 μM D-GAP, 80 μM pyruvate, 37° C.; average ± SEM
T2 construct: made in house
T2 sequence (P77488 1-620): T1 sequence (P77488 1-620)
Method: Enzyme reactions were initiated by addition of 0.1 μM DXP synthase. Aliquots (150 μL) of the enzymatic mixture were removed between 0.5 and 3 minutes and quenched into ice-cold methanol (150 μL). Precipitated protein was removed by centrifugation, and the supernatant was diluted in an equal volume of water. The nitroso substrate was removed by extraction into acetonitrile (3×), using a previously described freeze-extraction technique. ^[32] […] The derivatization mixtures were analyzed by HPLC as previously described. ^[19] To determine initial reaction rates in the presence of varying inhibitor concentration, the D,L-GAP and DXP hydrazone HPLC peak areas were measured, and the product concentration was determined as a percent of total peak area and plotted against reaction time. Initial rates GraFit version 7 from Erithacus Software was utilized to generate IC50 curves.

[2] = test system: wild-type K-12 E. coli (ATCC: MG1655); assay: Antimicrobial activity against E. coli K-12 grown in CAMHB; type: cell-based; settings: Escherichia coli, MG1655, 16 h, read-out: minimum inhibitory concentration (MIC90)
Method: FIG. 7A and FIG. 7B are charts showing representative growth curves are shown for BAP (FIG. 7A) and BnAP (FIG. 7B). Alkylacetylphosphonates exert dose-dependent delay in E. coli K-12 (MG 1655) growth in CAMHB. Fractional growth (measured at 16 h, blue arrow) was determined relative to the no drug control. Standardized cell cultures were exposed to increasing concentrations of acetylphosphonate, and growth was determined by measuring the OD600 for a period of 16 hours. Acetylphosphonate concentration was varied from 0-5 mM: No drug (light blue), 0.08 mM (orange), 0.16 mM (gray), 0.31 mM (yellow), 0.63 mM (blue), 1.25 mM (green), 2.5 mM (dark blue) and 5.0 mM (brown).
Thus, BnAP, PentAP, HexAP and OctAP, also shown to inhibit DXP synthase, were evaluated for antimicrobial activity against wild-type K-12 E. coli (ATCC: MG1655) grown in rich medium (CAMHB).

[3] = target: T3, Porcine pyruvate dehydrogenase (PDH E1 subunit) (Sus scrofa, UniProt P29804); assay: Inhibition of PDH by acetylphosphonates; type: biochemical; settings: Ki^PDH
T3 construct: Ki^PDH; μM); Ki^PDH
T3 sequence (P29804 1-390): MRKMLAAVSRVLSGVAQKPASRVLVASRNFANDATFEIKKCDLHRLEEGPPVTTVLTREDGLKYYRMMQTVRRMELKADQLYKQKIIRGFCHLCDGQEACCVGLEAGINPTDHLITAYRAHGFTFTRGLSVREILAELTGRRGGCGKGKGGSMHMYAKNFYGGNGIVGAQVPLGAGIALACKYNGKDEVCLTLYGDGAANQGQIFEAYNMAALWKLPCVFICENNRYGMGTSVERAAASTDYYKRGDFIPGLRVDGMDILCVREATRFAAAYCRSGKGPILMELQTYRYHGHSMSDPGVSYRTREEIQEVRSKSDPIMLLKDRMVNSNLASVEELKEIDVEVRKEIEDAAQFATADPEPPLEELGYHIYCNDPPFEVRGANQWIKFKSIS
Method: FIG. 6A, FIG. 6B, and FIG. 6C are charts showing Competitive inhibition of procine PDH E1 subunit by PentAP (FIG. 6A), HexAP (FIG. 6B) and OctAP (FIG. 6C). Inhibition assays were performed as previously described^[18]. Pyruvate concentration was varied from 12.5-250 μM and acetylphosphonate concentration was varied: 0 μM (∘), 250 μM (PentAP) or 200 μM (HexAP and OctAP) (●), 500 μM (□) and 1000 μM (▪). Experiments were performed in triplicate, and data were subjected to non-linear regression analysis for Ki determinations (GraphPad Prism). Representative Lineweaver-Burk plots (GraFit from Erithacus Software) are shown for PentAP (FIG. 6A), HexAP (FIG. 6B) and OctAP (FIG. […]) to illustrate the competitive inhibition mode with respect to pyruvate.
Pyruvate dehydrogenase activity was measured spectrophotometrically as previously reported ^[38] by monitoring absorbance changes at 340 nm due to reduction of NAD^+ by PDH. Reaction mixtures contained 100 mM HEPES (pH 8.0), 1 mg/mL BSA, 0.2 mM ThDP, 0.1 mM coenzyme A, 1 mM MgCl2, 2 mM cysteine, 0.3 mM tris(2-carboxyethyl)phosphine (TCEP). The reaction was initiated with enzyme (0.01 units/ml) and activity was monitored at 30° C. For inhibition studies, reaction mixtures (described above) including BnAP (0.5, 1, 2.25 mM) were pre-incubated at 30° C. for 5 minutes. Initial rates were measured immediately after reactions were initiated by addition of PDH (0.01 units/ml). Double reciprocal analysis of data was carried out using GraFit version 7 from Erithacus Software.

E. coli DXP synthase = target: T4, E. coli DXP synthase (Escherichia coli, UniProt P77488); assay: biochemical
T4 construct: made in house
Method: FIG. 4A, FIG. 4B, and FIG. 4C are charts showing competitive inhibition of DXP synthase by pentylacetylphosphonate (PentAP; FIG. 4A), hexylacetylphosphonate (HexAP; FIG. 4B), and octylacetyl phosphonate (OctAP; FIG. 4C). Inhibition assays were performed as previously described^[18], [40]). […] Pyruvate concentration was varied from 12-240 μM and acetylphosphonate concentration was varied: 0 μM (∘), 10 μM (●), 25 μM (□) and 50 μM (▪). Experiments were performed in triplicate, and data were subjected to non-linear regression analysis for Ki determinations (GraphPad Prism). Representative Lineweaver-Burk plots (GraFit from Erithacus Software) are shown for PentAP (FIG. 4A), HexAP (FIG. 4B) and OctAP (FIG. 4C) to illustrate the competitive inhibition mode with respect to pyruvate.
Inhibition of DXP synthase was measured as previously described^[13], [18]. […] Acetylphosphonate concentration was varied from 0 to 250 μM. […] Experiments were performed in triplicate for BAP and in duplicate for iPrAP
In order to evaluate the inhibitory activity of BnAP against DXP synthase, a continuous spectrophotometric coupled assay was used to measure formation of DXP by monitoring IspC consumption of NADPH (340 nm). ^[2] DXP synthase reaction mixtures (previously described) including BnAP (15, 30, and 60 μM), IspC (1 μM) and NADPH (100 μM) were pre-incubated at 37° C. for 5 minutes. Initial rates were measured after the reaction was initiated by the addition of DXP synthase. Inhibition of the coupling enzyme (IspC) by BnAP was not observed up to 1.5 mM. Experiments were performed in triplicate. Double reciprocal analysis of data was carried out using GraFit version 7 from Erithacus Software.

porcine PDH E1 subunit = type: biochemical
Method: Reaction mixtures containing 100 mM HEPES, pH 8.0, 2 mM MgCl2, 5 mM NaCl, 1 mM ThDP, 1 mg/mL BSA, 10-20 mM pyruvate, 10% DMSO v/v, and 10-300 μM nitroso substrate were pre-incubated at 37° C. for 5 min. Enzymatic reactions were initiated by addition of 0.5-2 μM DXP synthase (or 0.1 units/ml PDH) and monitored spectrophotometrically by measuring the rate of disappearance of the nitroso substrate at its corresponding λmax. Substrate concentration as a function of time was determined from absorbance values using Beer's Law. Initial reaction rates were determined from the linear range of the reaction progress curve, usually within 1-3 min. Data analysis to determine kcat and Km for each alternative substrate was carried out using GraFit version 7 from Erithacus Software.

[4] = 10-20 mM pyruvate, pH 8.0, 10% DMSO, 37° C., average ± SEM
[5] = acceptor substrate, 10-20 mM pyruvate, pH 8.0, 10% DMSO, 37° C., average ± SEM
[6] = Ki (DXP synthase), competitive with respect to pyruvate
[7] = Table 4, read-out: In vitro DXP syn IC50

## O=C[C@H](O)COP(=O)(O)O [D-GAP, D-glyceraldehyde 3-phosphate, reference compound]
[1]; [4]
  kcat: 1.7 ± 0.12 s⁻¹
[1]; pH 8
  Km: 28 ± 4 µM

## Cc1nn(C(C)C)c(C)c1N=O [Compound 9]
[1]; [4]
  kcat: 0.0233 ± 0.0033 s⁻¹
[1]; [5]
  Km: 387 ± 18 µM
DXP synthase
  IC50: > 2000 µM

## NS(=O)(=O)c1ccc2c(N=O)c(O)ccc2c1 [Compound 7]
[1]; [4]
  kcat: 0.0197 ± 0.00067 s⁻¹
[1]; [5]
  Km: 18 ± 4 µM

## CC(=O)P(=O)(O)OCc1ccccc1 [Compound 1, benzyl acetylphosphonate]
[2]
  MIC90: 630 µM (≈ 135 µg/mL)
[3]; Table 5 (no unit in table; μM)
  Ki: 880 ± 78 µM
[3]; competitive with respect to pyruvate
  Ki: 882 ± 78 µM
E. coli DXP synthase; [6]
  Ki: 10.4 ± 1.3 µM
E. coli DXP synthase; Ki (DXP synthase, with respect to D-GAP), uncompetitive with respect to D-GAP, 200 μM pyruvate
  Ki: 70 ± 8 µM
E. coli DXP synthase; Ki^DXPS, Table 5 (no unit in table; μM), vs pyruvate
  Ki: 10 ± 1 µM

## COc1ccc2ccc(O)c(N=O)c2c1 [Compound 8]
[1]; [4]
  kcat: 0.0217 ± 0.0033 s⁻¹
[1]; [5]
  Km: 63 ± 7 µM
DXP synthase
  IC50: > 2000 µM

## CC(=O)P(=O)(O)OC1Cc2ccccc2C1 [Compound 2]
E. coli DXP synthase; [7]
  IC50: 64.5 µM

## O=Nc1ccccc1 [Substrate 1, nitrosobenzene, reference compound]
Porcine PDH E1 subunit
  increase in Km for PDH compared to DXP synthase: 2.7 fold

## CC(=O)P(=O)(O)OC(C)C [iPrAP, Isopropylacetylphosphonate]
E. coli DXP synthase; pyruvate 95 μM, D-GAP 56 μM, error 95% Confidence Interval, read-out: IC50 (DXP synthase)
  IC50: 250 µM and 245 µM

## O=Nc1c(O)ccc2cc(Br)ccc12 [Compound 6]
[1]; [4]
  kcat: 0.0333 ± 0.0033 s⁻¹
[1]; [5]
  Km: 24 ± 6 µM

## CCCCCCOP(=O)(O)C(C)=O [HexAP, Hexylacetylphosphonate]
[2]
  MIC90: 5000 µM (≈ 1040 µg/mL)
[3]; Table 5 (no unit in table; μM)
  Ki: 117 ± 9 µM
E. coli DXP synthase; [6]
  Ki: 8.9 ± 0.5 µM

## CC(=O)P(=O)([O-])OCCc1cccc2ccccc12.[Li+] [Compound 5]
[1]; [4]
  kcat: 0.0183 ± 0.0033 s⁻¹
[1]; [5]
  Km: 41 ± 10 µM
E. coli DXP synthase; [7]
  IC50: 77 µM
E. coli DXP synthase; Table 4, read-out: In vitro DXP syn Ki
  Ki: 55 µM

## benzyl acetylphosphonate [Compound 1]
Porcine PDH E1 subunit; 10-20 mM pyruvate, pH 8.0, 37° C., average ± SEM
  Km: 350 ± 30 µM
Porcine PDH E1 subunit; ratio porcine PDH E1 vs E. coli DXPS
  Km^PDH/Km^DXPS: 2.7
[1]; [4]
  kcat: 2.92 ± 0.317 s⁻¹
[1]; [5]
  Km: 133 ± 18 µM
DXP synthase
  IC50: 208 ± 20 µM

## O=Nc1ccc(O)c2ncccc12 [Compound 10]
[1]; in words
  substrate usage by DXP synthase: did not act as substrate

## COc1cccc(COP(=O)([O-])C(C)=O)c1.[Li+] [Compound 3]
[1]; [4]
  kcat: 0.6 ± 0.12 s⁻¹
[1]; [5]
  Km: 99 ± 16 µM
E. coli DXP synthase; [7]
  IC50: 37.4 µM

## C=CCOP(=O)(O)C(C)=O [Compound 12]
E. coli DXP synthase
  IC50: 20 µM
